What all share (format): physicochemical
Data set [1] in a line: Effect of coexisting metal ions on BNGT as pH colorimetric switch. Particulars: pH 5.8 and pH 6.0, metal ions 100 μM. The procedure: In order to understand the interference of common metal ions on BNGT as a pH colorimetric switch, Fe^2+, Fe^3+, Cu^2+, K^+, Na^+, Mg^2+, Ag^+, Zn^2+, Cr^3+, Cd^2+, […], Ni^2+, Mn^2+, Pb^2+, Hg^2+ and Ca^2+ were added to the acetonitrile/water (in a volume ratio of 1/99 (a), 1/1 (b) and 8/2 (c)) solution, and the UV-Vis absorption spectra of the solution before and after the addition of these metal ions were obtained. […]
Second, the effect of coexisting metal ions on the absorbance of the solution at 527 nm, 535 nm and 537 nm was investigated, with the results as shown in FIG. 11; solvent: acetonitrile/water, in a volume ratio of 1/99 (a), 1/1 (b) and 8/2 (c); concentration: BNGT 10 μM, metal ions 100 μM; 1: none, 2: Ca^2+, 3: Mg^2+, 4: Ag^+, 5: Pb^2+, 6: Cu^2+, 7: Mn^2+, 8: Co^2+, 9: Cd^2+, 10: Ni^2+, 11: K^+, 12: Na^+, 13: Fe^3+, 14: Zn^2+, 15: Cr^2+, 16: Hg^2+, 17: Fe^2+; absorption wavelength: 527 nm, 535 nm and 537 nm. […] Therefore, the aforementioned metal ions had little effect on the response of BNGT to pH in terms of enhanced absorbance.

A short description of data set [2]: Reversibility of BNGT as pH colorimetric switch. Particulars: pH alternating between 5.8 and 6.0. From the text: 1 M HCl and 1 M NaOH were used to make the pH value of the acetonitrile/water (in a volume ratio of 1/99 (a), 1/1 (b) and 8/2 (c)) solution of BNGT alternately change between 5.8 and 6.0, so as to determine the UV-Vis absorption spectrum of the solution.
First, the reversibility of response of the maximum absorption wavelength and color of the solution to pH was investigated, with the results as shown in FIG. 12; solvent: acetonitrile/water, in a volume ratio of 1/99 (a), 1/1 (b) and 8/2 (c); concentration: BNGT 10 μM.
Second, the reversibility of response of the absorbance of BNGT to pH at 527 nm, 535 nm and 537 nm was investigated, with the results as shown in FIG. 13; solvent: acetonitrile/water, in a volume ratio of 1/99 (a), 1/1 (b) and 8/2 (c); concentration: BNGT 10 μM; the maximum absorption wavelengths corresponding to the absorbance of the three solutions were 527 nm, 535 nm and 537 nm, respectively. It can be seen from the figure that the pH value alternated between 5.8 and 6.0, and the absorbance of the acetonitrile/water (in a volume ratio of 1/99 (a), 1/1 (b) and 8/2 (c)) solution of BNGT also changed circularly from small to large at 527 nm, 535 nm and 537 nm, respectively.

Data set [3] can be described thus: Speed of response of BNGT to pH. Particulars: three solvents. From the text: To investigate the speed of response of BNGT to pH, adding 1 M NaOH aqueous solution to an acetonitrile/water (in a volume ratio of 1/99 (a), 1/1 (b) and 8/2 (c)) solution of BNGT at pH 5.8 to adjust the pH to 6.0; measuring the UV-Vis absorption spectrum of the solution before and after the adjustment, and plotting the maximum absorption wavelength and color over time, with the results as shown in FIG. 8; solvent: acetonitrile/water, in a volume ratio of 1/99 (a), 1/1 (b) and 8/2 (c); concentration: BNGT 10 μM.
The absorbance was plotted against time and the results were shown in FIG. 9; solvent: acetonitrile/water, in a volume ratio of 1/99 (a), 1/1 (b) and 8/2 (c); concentration: BNGT 10 μM; absorption wavelength: 527 nm, 535 nm and 537 nm.

Data set [4] can be described thus: UV-Vis absorption response of BNGT to pH. Particulars: for maximum absorption wavelength: BNGT 10 μM. The procedure:
Preparing a 1.0×10^−3 mol/L BNGT stock solution with acetonitrile as a solvent, and transferring 100 μL of the BNGT stock solution respectively into three series of 10 mL volumetric flasks; adding 7 mL of deionized water to the first series of volumetric flasks, adding 2 mL of deionized water and 5 ml of acetonitrile to the second series of volumetric flasks, and adding 1 mL of deionized water and 8 ml of acetonitrile to the third series of volumetric flasks; then titrating to the desired pH value respectively with 0.1 M NaOH and 0.1 M HCl aqueous solutions, and finally making up to volume with deionized water to obtain an acetonitrile/water solution of BNGT with different pHs in three solvent systems, the volume ratios of acetonitrile/water in the three solvent systems being 1/99, 1/1 and 8/2, respectively.
Therefore, in the three solvents (acetonitrile/water in a volume ratio of 1/99, 1/1 and 8/2), BNGT could be used as a pH colorimetric switch by means of three ways (a maximum absorption wavelength, absorbance and color).

[5] abbreviates: pH 5.8 to 6.0, acetonitrile/water 1/1.
[6] abbreviates: pH 5.8 to 6.0, acetonitrile/water 1/99.
Where [7] appears, read: pH 5.8 to 6.0, acetonitrile/water 8/2.

The structures appear in SMILES notation.

Data on one compound can be found in patent US11505530B2, “1,8-naphthalimide derivative, preparation method therefor and use thereof” (SOOCHOW UNIVERSITY, priority 2018, dated 2022).

In the case of `CCCCN1C(=O)c2cccc3c(NN=CC=NC(CO)(CO)CO)ccc(c23)C1=O` [BNGT], the “effect of coexisting metal ions on absorbance” value in data set [1] (527 nm, 535 nm and 537 nm) is recorded as “did not change much”. Besides, the “effect of coexisting metal ions on maximum absorption wavelength and color” value in data set [1] (BNGT 10 μM, three solvents) is “almost unchanged”. For the same compound, in data set [2] (527 nm, 535 nm and 537 nm), the “reversibility of response of absorbance to pH” value is “very good reversibility”. In data set [2] (three solvents), the “reversibility of response of maximum absorption wavelength and color to pH” value was “good reversibility”. In addition, in data set [3] (after pH adjusted to 6.0), the “stability of absorbance for the next 30 min” value is given as “remained basically stable”. The “time for absorbance to reach the maximum” value in data set [3] (pH 5.8 adjusted to 6.0 with NaOH, 527 nm, 535 nm and 537 nm) is recorded as “about 2 min”. The color change result in data set [3] (pH changed from 5.8 to 6.0) was “colorless to red”. For the same compound, the maximum absorption wavelength entry was “around 420 nm” in data set [4] (pH 1.9 to 5.8, acetonitrile/water 1/1); “around 432 nm” in data set [4] (pH 1.9 to 5.8, acetonitrile/water 1/99); “around 422 nm” in data set [4] (pH 1.9 to 5.8, acetonitrile/water 8/2); “around 535 nm” in data set [4] (pH 6.0 to 12.0, acetonitrile/water 1/1); “about 527 nm” in data set [4] (pH 6.0 to 12.0, acetonitrile/water 1/99); “around 537 nm” in data set [4] (pH 6.0 to 12.0, acetonitrile/water 8/2). For the same compound, the “increase of absorbance at 535 nm” value in data set [4] (setting [5]) is “about 20 times”. The figures for the “red shift of maximum absorption wavelength” value in data set [4] (setting [5]), in data set [4] (setting [6]) and in data set [4] (setting [7]) were 115 nm, 95 nm and 115 nm, respectively. In addition, the “increase of absorbance at 527 nm” value in data set [4] (setting [6]) was “about 6 times”. Besides, in data set [4] (setting [7]), the “increase of absorbance at 537 nm” value was “about 28 times”.
